Measurements as given in US20250003877A1, “Silyl Bridged Dyes” (priority 2021, published 2025).
Read-outs that look alike come from different tables or passages of the source.

How the values were obtained:
[1] = literature values; cited from earlier work
[2] = for ϕ (quantum yield): pH 7.4
[3] = system: HaloTag®-GFP-expressing HeLa cells; test: No-wash live cell imaging of HaloTag-expressing cells with a Si-bridge dye; assay type: cell-based; details: 200 nM dye, 15 min, 37° C., HeLa transfected with pHaloTag®-EGFP
Experimental: HeLa cells were seeded in 35 mm glass bottom dishes (Cellvis, catalog no. D35-28-O—N), and transfected with pHaloTag®-EGFP (Addgene #86629). Transient transfections were performed using Lipofectamine 2000 (Invitrogen, catalog no. 1168019) following the manufacturer's instructions. HeLa cell labeling and confocal imaging were performed 24 hr after transfection.
Labeling with JF646-HaloTag® ligand (Promega) and new dyes containing HaloTag® ligands were performed following the manufacturer's instructions. Briefly, cells were incubated with 200 nM dye in DMEM for 15 min at 37° C. Subsequently, images were obtained on a Leica SP-8 Confocal Microscope (SCOPE core facility, UMass Medical School), using a 40×1.15 Oil DIC objective. EGFP was excited with the Argon (488 nm) laser at a 15% intensity and detected through a 505-530 band pass filter and a pinhole set to 53.12 μm. Dyes fluorescing in the Cy5 channel were excited with the HeNe (633 nm) laser at a 15% intensity and detected through a 640-615 band pass filter and […] pinhole. Image analysis was performed using Leica LAS X SP8 software and ImageJ software.

Cc1ccccc1C1=C2C=CC(=[N+](C)C)C=C2[Si](C)(C)c2cc(N(C)C)ccc21 [Compound 001, N-(7-(Dimethylamino)-5,5-dimethyl-10-(o-tolyl)dibenzo[b,e]silin-3(5H)-ylidene)-N-methylmethanaminium, reference compound]
emission wavelength, literature value [1]: 658 nm | excitation wavelength, literature value [1]: 644 nm | ε, literature value [1]: 1.1×10^5 | ϕ, literature value [1]: 0.31 | Brightness (ϕ × ε) ([2]; PBS): 43,102 | Em (nm) ([2]; PBS): 663 nm | Ex (nm) ([2]; PBS): 648 nm | ε (M^−1 cm^−1) ([2]; PBS): 126,400 M^−1 cm^−1 | ϕ (quantum yield) ([2]; PBS): 0.34

Cc1ccccc1C1=c2cc3c(cc2[Si](C)(C)c2cc4c(cc21)CCCN4C)=[N+](C)CCC3 [Compound 016, 1,11,13,13-Tetramethyl-6-(o-tolyl)-2,3,4,8,9,10,11,13-octahydrosilino[3,2-g:5,6-g′]diquinolin-1-ium, reference compound]
emission wavelength, literature value [1]: 689 nm | excitation wavelength, literature value [1]: 674 nm | ε, literature value [1]: 1.3×10^5 | ϕ, literature value [1]: 0.35 | Brightness (ϕ × ε) [2]: 41,850 | Em (nm) [2]: 692 nm | Ex (nm) [2]: 674 nm | ε (M^−1 cm^−1) [2]: 135,000 M^−1 cm^−1 | ϕ (quantum yield) ([2]; PBS): 0.31

Cc1ccccc1C1=c2cc3c(cc2[Si](C)(C)c2cc4c(cc21)CCN4C)=[N+](C)CC3 [Compound 020, 1,9,11,11-Tetramethyl-5-(o-tolyl)-2,3,7,8,9,11-hexahydrosilino[3,2-f:5,6-f]diindol-1-ium, reference compound]
emission wavelength, literature value [1]: 712 nm | excitation wavelength, literature value [1]: 691 nm | ε, literature value [1]: 1.0×10^5 | ϕ, literature value [1]: 0.12 | Brightness (ϕ × ε) [2]: 17,000 | Em (nm) [2]: 715 nm | Ex (nm) [2]: 690 nm | ε (M^−1 cm^−1) [2]: 100,000 M^−1 cm^−1 | ϕ (quantum yield) ([2]; PBS): 0.17

CN(C)c1ccc2c(c1)[Si@](C)(CCCSCC(=O)NCCOCCOCCCCCCCl)c1cc(N(C)C)ccc1[C@]21OC(=O)c2ccccc21 [Compound 044, 2-((3-((5s,10s)-3,7-Bis(dimethylamino)-5-methyl-3′-oxo-3′H,5H-spiro[dibenzo[b,e]siline-10,1′-isobenzofuran]-5-yl)propyl)thio)-N-(2-(2-((6-chlorohexyl)oxy)ethoxy)ethyl)acetamide]
fluorescence contrast / background / localisation in cells [3]: poorly fluorescent in all cells | labeling of HaloTag®-expressing cells [3]: did not label HaloTag®-expressing cells

CN(C)c1ccc2c(c1)[Si@](C)(CCCSCC(=O)NCCOCCOCCCCCCCl)c1cc(N(C)C)ccc1[C@@]21OC(=O)c2ccccc21 [Compound 045, 2-((3-((5r,10r)-3,7-Bis(dimethylamino)-5-methyl-3′-oxo-3′H,5H-spiro[dibenzo[b,e]siline-10,1′-isobenzofuran]-5-yl)propyl)thio)-N-(2-(2-((6-chlorohexyl)oxy)ethoxy)ethyl)acetamide]
fluorescence contrast / background / localisation in cells [3]: bright high contrast images that correlated strongly to GFP expression

COc1cccc(OC)c1C1=C2C=CC(=[N+](C)C)C=C2[Si@](C)(CCCSCCOCCOCCOCCOCCCCCCCl)c2cc(N(C)C)ccc21 [Compound 049, N-(5-(22-Chloro-7,10,13,16-tetraoxa-4-thiadocosyl)-10-(2,6-dimethoxyphenyl)-7-(dimethylamino)-5-methyldibenzo[b,e]silin-3(5H)-ylidene)-N-methylmethanaminium]
fluorescence contrast / background / localisation in cells [3]: only stained mitochondria | labeling of HaloTag®-expressing cells [3]: did not label HaloTag®-expressing cells

CN(C)c1ccc2c(c1)[Si@](C)(CCCSCC(=O)O)c1cc(N(C)C)ccc1[C@@]21OC(=O)c2ccccc21 [Compound 064, 2-((3-((5r,10r)-3,7-Bis(dimethylamino)-5-methyl-3′-oxo-3′H,5H-spiro[dibenzo[b,e]siline-10,1′-isobenzofuran]-5-yl)propyl)thio)acetic acid]
Em (nm) ([2]; PBS): 665 nm | Ex (nm) ([2]; PBS): 645 nm | ϕ (quantum yield) ([2]; PBS): 0.45 | ε (M^−1 cm^−1) ([2]; spirolactone dyes, table title says PBS, text (b560-b564) says maximal ε when ring-opened in EtOH/0.1% TFA): 160,400 M^−1 cm^−1
